molecular target: human PDE10A2 (Homo sapiens (Human), UniProt Q9Y233); assay: PDE10 fluorescence polarization (IMAP FP) inhibition assay; format: biochemical; settings: human PDE10A2 from transfected AD293 cells; FAM-labeled cAMP 50 nM; apparent inhibition constant; read-out: PDE10A Ki
Summary of the method: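 Cytoplasmic lysate of AD293 cells transiently expressing human PDE10A2 (enzyme level giving 20% conversion) incubated with 50 nM FAM-cAMP in pH 7.2 Tris/MgCl2 buffer, 30 min at room temperature. IMAP binding solution added, FP read after ≥1 h; 10-point 3-fold compound titrations fitted to a four-parameter equation.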

Sequence of human PDE10A2 (Q9Y233 267-1055): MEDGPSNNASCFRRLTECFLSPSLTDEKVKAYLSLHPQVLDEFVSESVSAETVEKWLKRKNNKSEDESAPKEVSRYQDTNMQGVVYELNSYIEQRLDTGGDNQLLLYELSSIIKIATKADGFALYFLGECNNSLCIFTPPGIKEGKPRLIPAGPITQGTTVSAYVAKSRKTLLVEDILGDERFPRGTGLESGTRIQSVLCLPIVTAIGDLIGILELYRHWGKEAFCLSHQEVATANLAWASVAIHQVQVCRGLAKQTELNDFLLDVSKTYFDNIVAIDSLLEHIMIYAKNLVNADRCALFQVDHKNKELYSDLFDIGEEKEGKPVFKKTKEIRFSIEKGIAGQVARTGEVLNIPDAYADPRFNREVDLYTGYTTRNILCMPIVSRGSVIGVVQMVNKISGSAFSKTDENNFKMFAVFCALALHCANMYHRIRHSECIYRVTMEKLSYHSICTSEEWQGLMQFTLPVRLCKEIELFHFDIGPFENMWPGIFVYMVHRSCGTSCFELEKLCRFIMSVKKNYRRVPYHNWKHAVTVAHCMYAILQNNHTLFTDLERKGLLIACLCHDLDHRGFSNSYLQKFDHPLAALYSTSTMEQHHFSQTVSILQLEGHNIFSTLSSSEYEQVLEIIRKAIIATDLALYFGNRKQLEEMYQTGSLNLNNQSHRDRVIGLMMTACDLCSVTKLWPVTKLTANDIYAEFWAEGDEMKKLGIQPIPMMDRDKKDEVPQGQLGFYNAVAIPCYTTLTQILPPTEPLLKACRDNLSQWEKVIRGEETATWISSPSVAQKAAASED

Ki | SMILES
0.71 nM | COc1ccc([C@H]2C[C@@H]2COc2nc(C)ncc2-c2cn(C)[nH]c2=O)nc1 [Example 244, 4-(4-(((1S,2S)-2-(5-methoxypyridin-2-yl)cyclopropyl)methoxy)-2-methylpyrimidin-5-yl)-1-methyl-1,2-dihydropyrazol-3-one]
1.36 nM | COc1ccc([C@H]2C[C@@H]2COc2nc(C)ncc2-c2c[nH]nn2)nc1 [Example 245, 4-(((1S,2S)-2-(5-methoxypyridin-2-yl)cyclopropyl)methoxy)-2-methyl-5-(1H-1,2,3-triazol-4-yl)pyrimidine]
6.6 nM | COc1ccc([C@H]2C[C@@H]2COc2nc(C)ncc2-c2cnnn2C(F)F)nc1 [Example 246, 5-(3-(difluoromethyl)-3H-1,2,3-triazol-4-yl)-4-(((1S,2S)-2-(5-methoxypyridin-2-yl)cyclopropyl)methoxy)-2-methylpyrimidine]
2.43 nM | CCn1cc(-c2cnc(C)nc2OC[C@H]2C[C@@H]2c2ccc(OC)cn2)nn1 [Example 247, 5-(1-ethyl-1H-1,2,3-triazol-4-yl)-4-(((1S,2S)-2-(5-methoxypyridin-2-yl)cyclopropyl)methoxy)-2-methylpyrimidine]
14 nM | CCOC(=O)c1[nH]nnc1-c1cnc(C)nc1OC[C@H]1C[C@@H]1c1ccc(OC)cn1 [Example 248, ethyl 4-(4-(((1S,2S)-2-(5-methoxypyridin-2-yl)cyclopropyl)methoxy)-2-methylpyrimidin-5-yl)-1H-1,2,3-triazole-5-carboxylate]
15.7 nM | COc1ccc([C@H]2C[C@@H]2COc2nc(C)ncc2-c2nn[nH]c2CO)nc1 [Example 249, (4-(4-(((1S,2S)-2-(5-methoxypyridin-2-yl)cyclopropyl)methoxy)-2-methylpyrimidin-5-yl)-1H-1,2,3-triazol-5-yl)methanol]
1.16 nM | COc1ccc([C@H]2C[C@@H]2COc2nc(C)ncc2-c2ccc(-c3ncon3)cc2)nc1 [Example 250, 3-(4-(4-(((1S,2S)-2-(5-methoxypyridin-2-yl)cyclopropyl)methoxy)-2-methylpyrimidin-5-yl)phenyl)-1,2,4-oxadiazole]
1.97 nM | COc1ccc([C@H]2C[C@@H]2COc2nc(C)ncc2-c2ccc(-c3noc(C)n3)cc2)nc1 [Example 251, 3-(4-(4-(((1S,2S)-2-(5-methoxypyridin-2-yl)cyclopropyl)methoxy)-2-methylpyrimidin-5-yl)phenyl)-5-methyl-1,2,4-oxadiazole]
2.03 nM | COc1ccc([C@H]2C[C@@H]2COc2nc(C)ncc2-c2ccc(-c3noc(CO)n3)cc2)nc1 [Example 252, (3-(4-(4-(((1S,2S)-2-(5-methoxypyridin-2-yl)cyclopropyl)methoxy)-2-methylpyrimidin-5-yl)phenyl)-1,2,4-oxadiazol-5-yl)methanol]
3.02 nM | COc1ccc([C@H]2C[C@@H]2COc2nc(C)ncc2-c2ccc(-c3nc(C)no3)cc2)nc1 [Example 253, 5-(4-(4-(((1S,2S)-2-(5-methoxypyridin-2-yl)cyclopropyl)methoxy)-2-methylpyrimidin-5-yl)phenyl)-3-methyl-1,2,4-oxadiazole]
22.9 nM | COc1ccc([C@H]2C[C@@H]2COc2nc(C)ncc2-c2ncno2)nc1 [Example 254, 5-(4-(((1S,2S)-2-(5-methoxypyridin-2-yl)cyclopropyl)methoxy)-2-methylpyrimidin-5-yl)-1,2,4-oxadiazole]
7.7 nM | COc1ccc([C@H]2C[C@@H]2COc2nc(C)ncc2-c2cnco2)nc1 [Example 255, 5-(4-(((1S,2S)-2-(5-methoxypyridin-2-yl)cyclopropyl)methoxy)-2-methylpyrimidin-5-yl)oxazole]
29.9 nM | COc1ccc([C@H]2C[C@@H]2COc2nc(C)ncc2-c2noc(CO)n2)nc1 [Example 256, (3-(4-(((1S,2S)-2-(5-methoxypyridin-2-yl)cyclopropyl)methoxy)-2-methylpyrimidin-5-yl)-1,2,4-oxadiazol-5-yl)methanol]
0.91 nM | COc1ccc([C@H]2C[C@@H]2COc2nc(C)ncc2-c2ocnc2C)nc1 [Example 257, 5-(4-(((1S,2S)-2-(5-methoxypyridin-2-yl)cyclopropyl)methoxy)-2-methylpyrimidin-5-yl)-4-methyloxazole]
